Experimental data published in ChEMBL document CHEMBL3217615, “Novel 3,5-bis(arylidiene)-4-piperidone based monocarbonyl analogs of curcumin: anticancer activity evaluation and mode of action study” (2014).

Experiments:
Format in all cases: functional
[1] = tested on: ACHN; assay: Growth inhibition of human ACHN cells assessed as cell growth at 10^-6 M after 48 hrs by sulforhodamine B assay; details: read-out: Activity
[2] = Growth inhibition of human HOP92 cells assessed as cell growth at 10^-4 M after 48 hrs by sulforhodamine B assay; details: HOP-92, 48 h, read-out: Activity
[3] = tested on: PC-3; assay: Growth inhibition of human PC3 cells assessed as cell growth at 10^-4 M after 48 hrs by sulforhodamine B assay; details: PC-3, 48 h, read-out: Activity
[4] = tested on: Malme-3M; assay: Growth inhibition of human MALME-3M cells after 48 hrs by sulforhodamine B assay
[5] = tested on: SR; assay: Growth inhibition of human SR cells after 48 hrs by sulforhodamine B assay
[6] = tested on: SR; assay: Growth inhibition of human SR cells assessed as cell growth at 10^-6 M after 48 hrs by sulforhodamine B assay; details: read-out: Activity
[7] = Growth inhibition of human UACC62 cells assessed as cell growth at 10^-4 M after 48 hrs by sulforhodamine B assay; details: UACC-62, 48 h, read-out: Activity
[8] = Growth inhibition of human HCC2998 cells assessed as cell growth at 10^-8 M after 48 hrs by sulforhodamine B assay; details: HCC 2998, 48 h
[9] = tested on: COLO 205; assay: Growth inhibition of human COLO205 cells assessed as cell growth at 10^-7 M after 48 hrs by sulforhodamine B assay; details: COLO 205, 48 h, read-out: Activity
[10] = tested on: NCI-H522; assay: Growth inhibition of human NCI-H522 cells assessed as cell growth at 10^-7 M after 48 hrs by sulforhodamine B assay; details: NCI-H522, 48 h, read-out: Activity
[11] = tested on: SR; assay: Growth inhibition of human SR cells assessed as cell growth at 10^-4 M after 48 hrs by sulforhodamine B assay; details: read-out: Activity
[12] = tested on: RPMI-8226; assay: Growth inhibition of human RPMI8226 cells assessed as cell growth at 10^-4 M after 48 hrs by sulforhodamine B assay; details: RPMI-8226, 48 h, read-out: Activity
[13] = Growth inhibition of human MOLT4 cells assessed as cell growth at 10^-6 M after 48 hrs by sulforhodamine B assay; details: MOLT-4, 48 h, read-out: Activity
[14] = Growth inhibition of human HCC2998 cells assessed as cell growth at 10^-6 M after 48 hrs by sulforhodamine B assay; details: HCC 2998, 48 h, read-out: Activity
[15] = Growth inhibition of human HOP92 cells assessed as cell growth at 10^-7 M after 48 hrs by sulforhodamine B assay; details: HOP-92, 48 h, read-out: Activity
[16] = Growth inhibition of human UACC62 cells assessed as cell growth at 10^-7 M after 48 hrs by sulforhodamine B assay; details: UACC-62, 48 h, read-out: Activity
[17] = tested on: MDA-MB-231; assay: Growth inhibition of human MDA-MB-231 cells assessed as cell growth at 10^-6 M after 48 hrs by sulforhodamine B assay; details: MDA-MB-231, 48 h, read-out: Activity
[18] = Growth inhibition of human SF539 cells after 48 hrs by sulforhodamine B assay; details: SF-539, 48 h
[19] = Growth inhibition of human RXF393 cells assessed as cell growth at 10^-4 M after 48 hrs by sulforhodamine B assay; details: RXF 393, 48 h, read-out: Activity
[20] = Growth inhibition of human HOP92 cells assessed as cell growth at 10^-6 M after 48 hrs by sulforhodamine B assay; details: HOP-92, 48 h, read-out: Activity
[21] = tested on: IGROV-1; assay: Growth inhibition of human IGROV1 cells after 48 hrs by sulforhodamine B assay; details: IGROV-1, 48 h
[22] = tested on: MDA-MB-231; assay: Growth inhibition of human MDA-MB-231 cells assessed as cell growth at 10^-4 M after 48 hrs by sulforhodamine B assay; details: MDA-MB-231, 48 h, read-out: Activity
[23] = Growth inhibition of human UACC62 cells after 48 hrs by sulforhodamine B assay; details: UACC-62, 48 h
[24] = tested on: SF-268; assay: Growth inhibition of human SF268 cells assessed as cell growth at 10^-6 M after 48 hrs by sulforhodamine B assay; details: SF-268, 48 h, read-out: Activity
[25] = Growth inhibition of human RXF393 cells assessed as cell growth at 10^-8 M after 48 hrs by sulforhodamine B assay; details: RXF 393, 48 h
[26] = tested on: NCI-H460; assay: Growth inhibition of human NCI-H460 cells after 48 hrs by sulforhodamine B assay; details: NCI-H460, 48 h
[27] = Growth inhibition of human UACC257 cells assessed as cell growth at 10^-4 M after 48 hrs by sulforhodamine B assay; details: UACC-257, 48 h, read-out: Activity
[28] = tested on: KM12; assay: Growth inhibition of human KM12 cells assessed as cell growth at 10^-4 M after 48 hrs by sulforhodamine B assay; details: KM12, 48 h, read-out: Activity
[29] = tested on: A549; assay: Growth inhibition of human A549/ATCC cells assessed as cell growth at 10^-6 M after 48 hrs by sulforhodamine B assay; details: A549, 48 h, read-out: Activity
[30] = tested on: MDA-MB-468; assay: Growth inhibition of human MDA-MB-468 cells assessed as cell growth at 10^-7 M after 48 hrs by sulforhodamine B assay; details: MDA-MB-468, 48 h, read-out: Activity
[31] = tested on: SNB-75; assay: Growth inhibition of human SNB75 cells assessed as cell growth at 10^-6 M after 48 hrs by sulforhodamine B assay; details: SNB-75, 48 h, read-out: Activity
[32] = tested on: Malme-3M; assay: Growth inhibition of human MALME-3M cells assessed as cell growth at 10^-8 M after 48 hrs by sulforhodamine B assay
[33] = tested on: HT-29; assay: Growth inhibition of human HT-29 cells assessed as cell growth at 10^-6 M after 48 hrs by sulforhodamine B assay; details: HT-29, 48 h, read-out: Activity
[34] = tested on: U-251; assay: Growth inhibition of human U251 cells assessed as cell growth at 10^-4 M after 48 hrs by sulforhodamine B assay; details: U-251, 48 h, read-out: Activity
[35] = Growth inhibition of human OVCAR5 cells after 48 hrs by sulforhodamine B assay; details: OVCAR-5, 48 h
[36] = read-out: LC50 (the source's name)
[37] = read-out: pLC50 (the source's name) (converted)

SMILES: O=C1/C(=C/c2ccc(Cl)cc2Cl)CN(S(=O)(=O)c2ccccc2)C/C1=C\c1ccc(Cl)cc1Cl
- growth at 1 µM [1]: 47%
- growth at 100 µM [2]: -20%
- growth at 100 µM [3]: -26%
- GI50 [4]: 3210 nM
- CC50 [4, 36]: > 100000 nM
- GI50 [5]: 185 nM
- TGI [5]: 865 nM
- CC50 [5, 36]: > 100000 nM
- growth at 1 µM [6]: -5%
- growth at 100 µM [7]: -71%
- GI50 [8]: 380 nM
- growth at 0.01 µM ([8]; read-out: Activity): 102%
- CC50 [8, 37]: 4570 nM
- TGI ([8]; read-out: pTGI (converted)): 1350 nM
- growth at 0.1 µM [9]: 107%
- growth at 0.1 µM [10]: 97%
- growth at 100 µM [11]: -21%
- growth at 100 µM [12]: -35%
- growth at 1 µM [13]: 34%
- growth at 1 µM [14]: 13%
- growth at 0.1 µM [15]: 77%
- growth at 0.1 µM [16]: 95%
- growth at 1 µM [17]: 26%
- GI50 [18]: 424 nM
- TGI [18]: 2070 nM
- CC50 [18, 36]: > 100000 nM
- growth at 100 µM [19]: -88%
- growth at 1 µM [20]: 72%
- GI50 [21]: 317 nM
- TGI [21]: 649 nM
- CC50 [21, 36]: > 100000 nM
- growth at 100 µM [22]: -49%
- GI50 [23]: 804 nM
- TGI [23]: 2310 nM
- CC50 [23, 36]: 5810 nM
- growth at 1 µM [24]: 24%
- GI50 [25]: 1070 nM
- growth at 0.01 µM ([25]; read-out: Activity): 78%
- CC50 [25, 37]: 5500 nM
- TGI ([25]; read-out: pTGI (converted)): 2400 nM
- GI50 [26]: 208 nM
- TGI [26]: 447 nM
- CC50 [26, 36]: 959 nM
- growth at 100 µM [27]: 42%
- growth at 100 µM [28]: -56%
- growth at 1 µM [29]: -5%
- growth at 0.1 µM [30]: 94%
- growth at 1 µM [31]: 38%
- GI50 [32]: 3240 nM
- LC50 [32]: > 100000 nM
- growth at 0.01 µM ([32]; read-out: Activity): 118%
- growth at 1 µM [33]: -8%
- growth at 100 µM [34]: -63%
- GI50 [35]: 2130 nM
- TGI [35]: 7430 nM
- CC50 [35, 36]: > 100000 nM
